Experimental data: the supplement of paper PMC10627819

Key:
[1] = system: S. aureus DSM 20231; test: Bliss interaction score (quartile over a dose matrix) (fitness difference); higher = more antagonism (negative = synergy)
Procedure, shortened: (§1)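 Fitness was OD595 at entry into stationary phase divided by the plate's robust no-drug mean and capped at 1; single-drug fitness was inferred from combination data. The Bliss score is observed minus expected (product) fitness, summarised by quartiles over technical, biological and donor/recipient replicates.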

[2] = system: B. subtilis 168; test: as above
Procedure, shortened: as §1

[3] = system: S. aureus Newman; test: as above
Procedure, shortened: as §1

[4] = system: S. pneumoniae D39V; test: as above
Procedure, shortened: as §1

[5] = system: S. pneumoniae D39V; test: fitness (endpoint OD595 vs no drug) (fraction); higher = more growth
Procedure, shortened: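 At 37 °C, bacteria in TSB, LB Lennox or CY were grown in 384-well plates from a starting OD595 of 0.01. OD595 was measured every 30 min for 14 h, with the first reading used as background. Fitness is the optical density at the switch to stationary phase as a fraction of the robust mean of no-drug control wells, capped at 1.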
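For Bliss interaction score (quartile over a dose matrix) in this document: first quartile when negative (synergy) and third quartile when positive (antagonism).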

C[C@@H](O)[C@H]1C(=O)N2C(C(=O)O)=C(SCCNC=N)C[C@H]12 [Imipenem] + Cn1nnc(-c2ccc(-c3ccc(N4C[C@H](CO)OC4=O)cc3F)cn2)n1 [Tedizolid]
Settings	Bliss interaction score
[1]	-0.0424
[2]	0.21
[3]	0.0821
[4]	-0.17

fitness, [5]
Settings	first compound 0.005 µg/mL	first compound 0.0065 µg/mL	first compound 0.01 µg/mL	first compound 0.013 µg/mL	first compound 0.02 µg/mL	first compound 0.026 µg/mL
partner 0.03125 µg/mL	0.922	–	0.917	–	0.913	–
partner 0.0625 µg/mL	0.958	–	0.949	–	0.993	–
partner 0.125 µg/mL	0.829	0.68	0.795	0.758	0.82	0.553
partner 0.25 µg/mL	–	0.553	–	0.607	–	0.578
partner 0.5 µg/mL	–	0.125	–	0.161	–	0.151

C[C@@H](O)[C@H]1C(=O)N2C(C(=O)O)=C(SCCNC=N)C[C@H]12 [Imipenem] + O=C1CN(/N=C/c2ccc([N+](=O)[O-])o2)C(=O)N1 [Nitrofurantoin]
Settings	Bliss interaction score
[1]	0.0253
[2]	0.0986
[3]	-0.0377
[4]	0.049

fitness, [5]
Settings	first compound 0.005 µg/mL	first compound 0.0065 µg/mL	first compound 0.01 µg/mL	first compound 0.013 µg/mL	first compound 0.02 µg/mL	first compound 0.026 µg/mL
partner 1.285 µg/mL	0.947	–	0.967	–	0.97	–
partner 2 µg/mL	–	0.931	–	0.882	–	0.842
partner 2.57 µg/mL	0.946	–	0.944	–	0.955	–
partner 4 µg/mL	–	0.912	–	0.914	–	0.804
partner 8 µg/mL	–	0.763	–	0.728	–	0.72

[5], partner 5.14 µg/mL, one replicate
Settings	fitness
first compound 0.005 µg/mL	0.887
first compound 0.01 µg/mL	0.941
first compound 0.02 µg/mL	0.928

CCC[C@@H]1C[C@@H](C(=O)N[C@@H]([C@H]2O[C@H](SC)[C@H](O)[C@@H](O)[C@H]2O)[C@@H](C)O)N(C)C1 [Lincomycin] + C/C(=C\C(=O)OCCCCCCCCC(=O)O)C[C@@H]1OC[C@H](C[C@@H]2O[C@H]2[C@@H](C)[C@H](C)O)[C@@H](O)[C@H]1O [Pseudomonic acid]
Settings	Bliss interaction score
[1]	0.0155
[2]	-0.0308
[3]	0.031
[4]	-0.269

fitness, [5]
Settings	first compound 0.2 µg/mL	first compound 0.215 µg/mL	first compound 0.4 µg/mL	first compound 0.43 µg/mL	first compound 0.8 µg/mL	first compound 0.86 µg/mL
partner 0.03 µg/mL	0.649	0.828	–	0.633	0.121	0.177
partner 0.06 µg/mL	–	–	0.206	–	0.0533	0.142
partner 0.12 µg/mL	0.179	–	0.156	–	0.0889	0.12
